Measured values published in US12390446B2 (RESEARCH TRIANGLE INSTITUTE, priority 2017, dated 2025).
Like-named read-outs stand apart in the source and are kept apart here.

Columns and labels:
[1] = biological target: T1, NPFF2 receptor (human NPFFR2 in CHO-RD-HGA16 cells) (Homo sapiens, UniProt Q9Y5X5); assay: Calcium mobilization functional Ke assay, NPFF2; assay type: cell-based; settings: for Kb: read-out: NPFF2 Ke
T1 construct: expressed in transfected cells

[2] = biological target: T2, NPFF1 receptor (human NPFFR1 in CHO-RD-HGA16 cells) (Homo sapiens, UniProt Q9GZQ6); assay: Calcium mobilization functional Ke assay, NPFF1; assay type: cell-based; settings: for Kb: read-out: NPFF1 Ke; for type of antagonism in curve-shift assays: standard incubation, competitive profile with longer incubations
T2 construct: expressed in transfected cells

[3] = Table 1, footnote c: pre-incubation of antagonist and test compound 45 min or 1 hr
[4] = Table 1, mean ± SEM, apparent dissociation constant vs NPFF
[5] = Table 2, 4-(4-methylthio)benzylamino series, mean ± SEM

T2 sequence (Q9GZQ6 whole entry): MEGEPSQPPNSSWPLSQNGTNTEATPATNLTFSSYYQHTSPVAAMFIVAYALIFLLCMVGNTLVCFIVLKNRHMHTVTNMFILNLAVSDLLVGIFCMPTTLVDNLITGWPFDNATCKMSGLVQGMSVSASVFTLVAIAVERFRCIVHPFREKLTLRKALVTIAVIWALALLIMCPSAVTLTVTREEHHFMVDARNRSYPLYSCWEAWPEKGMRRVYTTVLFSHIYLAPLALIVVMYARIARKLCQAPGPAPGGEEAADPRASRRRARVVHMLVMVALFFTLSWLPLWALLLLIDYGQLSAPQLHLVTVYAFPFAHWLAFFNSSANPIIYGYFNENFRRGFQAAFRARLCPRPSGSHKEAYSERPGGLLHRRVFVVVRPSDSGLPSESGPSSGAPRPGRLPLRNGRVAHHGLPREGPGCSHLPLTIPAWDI
T1 sequence (Q9Y5X5 whole entry): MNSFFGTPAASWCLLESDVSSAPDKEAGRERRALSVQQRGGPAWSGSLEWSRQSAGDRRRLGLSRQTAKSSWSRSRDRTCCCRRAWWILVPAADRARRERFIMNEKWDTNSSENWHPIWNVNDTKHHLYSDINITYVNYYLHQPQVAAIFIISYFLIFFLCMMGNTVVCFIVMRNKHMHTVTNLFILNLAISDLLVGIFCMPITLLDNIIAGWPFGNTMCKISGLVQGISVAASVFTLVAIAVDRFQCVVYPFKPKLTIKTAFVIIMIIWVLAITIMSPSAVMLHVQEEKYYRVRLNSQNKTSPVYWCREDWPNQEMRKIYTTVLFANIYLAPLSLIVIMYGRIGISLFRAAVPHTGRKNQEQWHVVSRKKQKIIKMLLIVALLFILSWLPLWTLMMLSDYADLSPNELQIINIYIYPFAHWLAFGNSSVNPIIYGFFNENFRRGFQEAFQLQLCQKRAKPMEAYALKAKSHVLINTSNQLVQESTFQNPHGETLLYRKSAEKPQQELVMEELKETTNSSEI

Compound: CNC(=O)[C@@H]1C[C@H](NCc2ccc(OC)cc2)CN1Cc1ccccc1Cl [Compound 10, (2S,4S)-1-[(2-Chlorophenyl)methyl]-4-{[(4-methoxyphenyl)methyl]amino}-N-methylpyrrolidine-2-carboxamide]
- NPFF2 antagonist activity ([1]; at 10 μM): inactive
- NPFF1 antagonist activity ([2]; at 10 μM): inactive

Compound: COc1ccc(CN[C@H]2C[C@@H](C(=O)N3CCN(c4ccccc4)CC3)N(Cc3ccccc3Cl)C2)cc1 [Compound 42, (3S,5S)-1-[(2-Chlorophenyl)methyl]-N-[(4-methoxyphenyl)methyl]-5-(4-phenylpiperazine-1-carbonyl)pyrrolidin-3-amine]
- Kb [1, 3]: 2080 nM
- Kb [2, 3]: 1330 nM
- NPFF1 Ke ([2]; calcium mobilization assay): 1,330 nM
- type of antagonism in curve-shift assays [2]: insurmountable antagonism

Compound: CCC(C)NC(=O)[C@@H]1C[C@H](NCc2ccc(OC)cc2)CN1Cc1ccccc1Cl (stereo partly drawn) [Compound 14, (2S,4S)—N-(Butan-2-yl)-1-[(2-chlorophenyl)methyl]-4-{[(4-methoxyphenyl)methyl]amino}pyrrolidine-2-carboxamide]
- Kb [1, 4]: 3680 nM
- Kb [2, 4]: 1500 nM

Compound: O=C(NCCc1ccc([N+](=O)[O-])cc1)[C@@H]1C[C@H](NCc2ccc(C(F)(F)F)cc2)CN1Cc1ccccc1Cl [Compound 62, (2S,4S)-1-[(2-Chlorophenyl)methyl]-N-[2-(4-nitrophenyl)ethyl]-4-({[4-(trifluoromethyl)phenyl]methyl}amino)pyrrolidine-2-carboxamide]
- Kb ([1]; Table 3, mean ± SEM): 6380 nM
- Kb ([2]; Table 3, mean ± SEM): 2060 nM

Compound: COc1ccc(CN[C@H]2C[C@@H](C(=O)NCCc3ccccc3)N(Cc3cccc(Cl)c3)C2)cc1 [Compound 77, (2S,4S)-1-[(3-Chlorophenyl)methyl]-4-{[(4-methoxyphenyl)methyl]amino}-N-(2-phenylethyl)pyrrolidine-2-carboxamide]
- Kb ([1]; Table 4, mean ± SEM): 4100 nM
- Kb ([2]; Table 4, mean ± SEM): 580 ± 50 nM
- preference / selectivity for NPFF1 over NPFF2 ([2]; from calcium mobilization Ke values): > 10 fold

Compound: CSc1ccc(CN[C@H]2C[C@@H](C(=O)NCCc3ccc(F)c(F)c3)N(Cc3ccccc3Cl)C2)cc1 [Compound 48, (2S,4S)-1-[(2-Chlorophenyl)methyl]-N-[2-(3,4-difluorophenyl)ethyl]-4-{[(4-(methylthio)phenyl)methyl]amino}pyrrolidine-2-carboxamide]
- Kb ([1]; Table 2, footnote c: pre-incubation 1 hr): 880 ± 160 nM
- Kb [2, 5]: 470 ± 60 nM
- Kb ([2]; calcium mobilization assay): 470 nM

Compound: CCNC(=O)[C@@H]1C[C@H](NCc2ccc(SC)cc2)CN1Cc1ccccc1Cl [Compound 43, (2S,4S)-1-[(2-Chlorophenyl)methyl]-N-ethyl-4-{[(4-(methylthio)phenyl)methyl]amino}pyrrolidine-2-carboxamide]
- Kb [1, 5]: 5600 nM
- Kb [2, 5]: 1080 nM

Compound: CCCCCN[C@H]1C[C@@H](C(=O)NCCc2ccc([N+](=O)[O-])cc2)N(Cc2ccccc2Cl)C1 [Compound 54, (2S,4S)-1-[(2-Chlorophenyl)methyl]-N-[2-(4-nitrophenyl)ethyl]-4-(pentylamino) pyrrolidine-2-carboxamide]
- Kb ([1]; Table 3, mean ± SEM): > 10000 nM
- Kb ([2]; Table 3, mean ± SEM): 2480 nM

Compound: COc1ccc(CN[C@H]2C[C@@H](C(=O)NCCCc3ccccc3)N(Cc3ccccc3Cl)C2)cc1 [Compound 25, (2S,4S)-1-[(2-Chlorophenyl)methyl]-4-{[(4-methoxyphenyl)methyl]amino}-N-(3-phenylpropyl)pyrrolidine-2-carboxamide]
- Kb [1, 3]: 2600 nM
- Kb [2]: > 10000 nM

Compound: COc1ccc(CN[C@H]2C[C@@H](C(=O)NCCc3ccc(F)cc3)N(Cc3ccccc3Cl)C2)cc1 [Compound 35, (2S,4S)-1-[(2-Chlorophenyl)methyl]-N-[2-(4-fluorophenyl)ethyl]-4-{[(4-methoxyphenyl)methyl]amino}pyrrolidine-2-carboxamide]
- Kb [1, 4]: 9880 nM
- Kb [2, 4]: 1130 nM
- NPFF1 Ke ([2]; calcium mobilization assay): 1,130 nM

Compound: COc1ccc(CN[C@H]2C[C@@H](C(=O)NCc3ccccc3)N(Cc3ccccc3Cl)C2)cc1 [Compound 23, (2S,4S)—N-Benzyl-1-[(2-chlorophenyl)methyl]-4-{[(4-methoxyphenyl)methyl]amino}pyrrolidine-2-carboxamide]
- Kb [1, 3]: 2010 nM
- Kb [2, 3]: 780 ± 80 nM
- type of antagonism in curve-shift assays [2]: insurmountable antagonism

Compound: COc1ccc(CN[C@H]2C[C@@H](C(=O)NCCc3ccccc3)N(Cc3ccc(OC)c(OC)c3)C2)cc1 [Compound 81, (2S,4S)-1-[(3,4-Dimethoxyphenyl)methyl]-4-{[(4-methoxyphenyl)methyl]amino}-N-(2-phenylethyl)pyrrolidine-2-carboxamide]
- Kb ([1]; Table 4, mean ± SEM): 5360 nM
- Kb ([2]; Table 4, mean ± SEM): 9020 nM

Compound: CCN(CC)C(=O)[C@@H]1C[C@H](NCc2ccc(OC)cc2)CN1Cc1ccccc1Cl [Compound 40, (2S,4S)-1-[(2-Chlorophenyl)methyl]-N,N-diethyl-4-{[(4-methoxyphenyl)methyl]amino}pyrrolidine-2-carboxamide]
- Kb [1, 4]: 4930 nM
- Kb [2, 4]: 2900 nM

Compound: O=C(NCCc1ccc([N+](=O)[O-])cc1)[C@@H]1C[C@H](NCc2ccc(O)cc2)CN1Cc1ccccc1Cl [Compound 61, (2S,4S)-1-[(2-Chlorophenyl)methyl]-4-{[(4-hydroxyphenyl)methyl]amino}-N-[2-(4-nitrophenyl)ethyl]pyrrolidine-2-carboxamide]
- Kb ([1]; Table 3, mean ± SEM): 6370 nM
- Kb ([2]; Table 3, mean ± SEM): 4790 nM

Compound: COc1ccc(CN[C@H]2C[C@@H](C(=O)NCCc3ccc([N+](=O)[O-])cc3)N(Cc3ccccc3Cl)C2)cc1OC [Compound 60, (2S,4S)-1-[(2-Chlorophenyl)methyl]-4-{[(3,4-dimethoxyphenyl)methyl]amino}-N-[2-(4-nitrophenyl)ethyl]pyrrolidine-2-carboxamide]
- Kb ([1]; Table 3, mean ± SEM): 3150 nM
- Kb ([2]; Table 3, mean ± SEM): 1920 nM

Compound: CCCCCCNC(=O)[C@@H]1C[C@H](NCc2ccc(OC)cc2)CN1Cc1ccccc1Cl [Compound 18, (2S,4S)-1-[(2-Chlorophenyl)methyl]-4-{[(4-methoxyphenyl)methyl]amino}-N-hexylpyrrolidine-2-carboxamide]
- Kb [1, 3]: 1490 nM
- Kb [2, 4]: 820 ± 80 nM

Compound: CCCCN[C@H]1C[C@@H](C(=O)NCCc2ccc([N+](=O)[O-])cc2)N(Cc2ccccc2Cl)C1 [Compound 53, (2S,4S)-4-(Butylamino)-1-[(2-chlorophenyl)methyl]-N-[2-(4-nitrophenyl)ethyl]pyrrolidine-2-carboxamide]
- Kb ([1]; Table 3, mean ± SEM): > 10000 nM
- Kb ([2]; Table 3, mean ± SEM): 6120 nM

Compound: COc1ccc(CN[C@H]2C[C@@H](C(=O)NCCc3ccccc3)N(Cc3ccc(N(C)C)cc3)C2)cc1 [Compound 85, (2S,4S)-1-{[4-(Dimethylamino)phenyl]methyl}-4-{[(4-methoxyphenyl)methyl]amino}-N-(2-phenylethyl)pyrrolidine-2-carboxamide]
- Kb ([1]; Table 4, mean ± SEM): > 10000 nM
- Kb ([2]; Table 4, mean ± SEM): 3510 nM

Compound: COc1ccc(CN[C@H]2C[C@@H](C(=O)NCCc3ccccc3)N(Cc3ccc(C#N)cc3)C2)cc1 [Compound 86, (2S,4S)-1-[(4-Cyanophenyl)methyl]-4-{[(4-methoxyphenyl)methyl]amino}-N-(2-phenylethyl)pyrrolidine-2-carboxamide]
- Kb ([1]; Table 4, mean ± SEM): > 10000 nM
- Kb ([2]; Table 4, mean ± SEM): 3830 nM

Compound: CCCN(CCC)C(=O)[C@@H]1C[C@H](NCc2ccc(OC)cc2)CN1Cc1ccccc1Cl [Compound 41, (2S,4S)-1-[(2-Chlorophenyl)methyl]-4-{[(4-methoxyphenyl)methyl]amino}-N,N-dipropylpyrrolidine-2-carboxamide]
- Kb [1, 3]: 1730 nM
- Kb [2, 3]: 880 ± 120 nM
- Kb ([2]; calcium mobilization assay): 880 nM
- type of antagonism in curve-shift assays [2]: insurmountable antagonism

Compound: COc1ccc(CN[C@H]2C[C@@H](C(=O)NCCc3ccccc3)N(Cc3ccccc3)C2)cc1 [Compound 76, (2S,4S)-1-Benzyl-4-{[(4-methoxyphenyl)methyl]amino}-N-(2-phenylethyl)pyrrolidine-2-carboxamide]
- Kb ([1]; Table 4, mean ± SEM): > 10000 nM
- Kb ([2]; Table 4, mean ± SEM): 1270 nM
